Measurements from EP0013144A1, “Substituted diphenylamine derivatives, compositions and herbicidal uses thereof, and processes for their preparation” (ICI AUSTRALIA LIMITED, priority 1978, dated 1980).

Key:
Type in all cases: in vivo
Rice = assay: Pre-emergence herbicidal test, fibre trays (Example 33); design: key: 0 is 0 to 20% damage; 5 is complete kill; conditions: after 21 days
How it was run: (§1)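 Damage scored 0–5 versus untreated controls (0 = 0–20% damage, 5 = complete kill): 14 d for sprayed young pot plants, 21 d for seeds sown in fibre trays, sprayed on the levelled soil surface, then covered thinly with soil. Spray: aqueous dilution of a Span 80/Tween 20/methylcyclohexanone emulsion.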

Japanese millet [1] = assay: Pre-emergence herbicidal activity (Example 31); conditions: after three weeks
How it was run: (§2)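 Glasshouse test: sown seed boxes sprayed pre-emergence with diluted formulation, unsprayed boxes as reference. Visual damage scored 0–3+ after 3 weeks.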

Ryegrass [2] = assay: Pre-emergence herbicidal activity (Example 31); design: key: 0-3 scale: 0 = 0-25% damage, 3 = 75-99% kill, 3+ = 100% kill; conditions: after three weeks
How it was run: as §2

Chenopodium album = assay: Post-emergence herbicidal test, young pot plants (Example 33); conditions: after 14 days
How it was run: as §1

Cotton [3] = assay: as above; conditions: after 14 days
How it was run: as §1

Ipomea purpurea [4] = assay: as above; conditions: after 14 days
How it was run: as §1

Sugar beet [5] = assay: as above; conditions: after 14 days
How it was run: as §1

Soy bean [6] = assay: as above; conditions: after 14 days
How it was run: as §1

Amaranthus retroflexus = assay: as above; conditions: after 14 days
How it was run: as §1

Japanese millet [7] = assay: Post-emergence herbicidal activity (Example 32); conditions: 3 weeks after spraying
How it was run: (§3)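 Compounds were formulated as emulsifiable concentrates in toluene with surfactants (oils, waxy solids) or ball-milled aqueous suspensions (crystalline solids), then diluted with water. Glasshouse seedlings in soil, grown to about 10 to 12.5 cm, were sprayed. Damage was scored visually after 3 weeks against untreated controls on a 0–3 scale (3+ = 100% kill).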

Ryegrass [8] = assay: Post-emergence herbicidal activity (Example 32); conditions: 3 weeks after spraying
How it was run: as §3

Mustard = assay: Post-emergence herbicidal activity (Example 32); conditions: 3 weeks after spraying
How it was run: as §3

Ipomea = assay: Post-emergence herbicidal activity (Example 32); conditions: 3 weeks after spraying
How it was run: as §3

Sunflower = assay: Post-emergence herbicidal activity (Example 32); conditions: 3 weeks after spraying
How it was run: as §3

Maize = assay: Pre-emergence herbicidal test, fibre trays (Example 33); design: key: 0 = 0-20% damage, 5 = complete kill, vs untreated control; conditions: after 21 days
How it was run: as §1

Cotton [9] = assay: as above; conditions: after 21 days
How it was run: as §1

Senecio vulgaris = assay: as above; conditions: after 21 days
How it was run: as §1

Ipomea purpurea [10] = assay: as above; conditions: after 21 days
How it was run: as §1

Winter wheat = assay: as above; conditions: after 21 days
How it was run: as §1

Sugar beet [11] = assay: as above; conditions: after 21 days
How it was run: as §1

Rape = assay: as above; conditions: after 21 days
How it was run: as §1

Soy bean [12] = assay: as above; conditions: after 21 days
How it was run: as §1

## COC(=O)C(C)Oc1ccc(N(C)c2ccc(Cl)cc2[N+](=O)[O-])cc1 (stereo not shown) [Compound 27]
Rice; 2.0 kg/ha
  herbicidal damage, Rc: 5
Japanese millet [1]; 1 kg/ha
  damage to plants, Jm: 1
Japanese millet [1]; 5 kg/ha
  damage to plants, Jm: 3 (3 represents 75 to 99% kill)
Ryegrass [2]; 1 kg/ha
  damage to plants, Rg: 1
Ryegrass [2]; 5 kg/ha
  damage to plants, Rg: 3 (3 represents 75 to 99% kill)
Chenopodium album; 2.0 kg/ha
  damage to test plants, Ca: 0 (0 is 0 to 20% damage)
Cotton [3]; 2.0 kg/ha
  damage to test plants, Ct: 0 (0 is 0 to 20% damage)
Ipomea purpurea [4]; 2.0 kg/ha
  damage to test plants, Ip: 0 (0 is 0 to 20% damage)
Sugar beet [5]; 2.0 kg/ha
  damage to test plants, Sb: 0 (0 is 0 to 20% damage)
Soy bean [6]; 2.0 kg/ha
  damage to test plants, Sy: 0 (0 is 0 to 20% damage)
Amaranthus retroflexus; 2.0 kg/ha
  damage to test plants, Am: 0 (0 is 0 to 20% damage)
Japanese millet [7]; 1 kg/ha
  damage to plants, Jm: 3+ (3+ represents 100% kill)
Japanese millet [7]; 5 kg/ha
  damage to plants, Jm: 3+ (3+ represents 100% kill)
Ryegrass [8]; 1 kg/ha
  damage to plants, Rg: 3+ (3+ represents 100% kill)
Ryegrass [8]; 5 kg/ha
  damage to plants, Rg: 3+ (3+ represents 100% kill)
Mustard; 1 kg/ha
  damage to plants, Ms: 0 (0 represents 0 to 25% damage)
Mustard; 5 kg/ha
  damage to plants, Ms: 0 (0 represents 0 to 25% damage)
Ipomea; 1 kg/ha
  damage to plants, Ip: 0 (0 represents 0 to 25% damage)
Ipomea; 5 kg/ha
  damage to plants, Ip: 0 (0 represents 0 to 25% damage)
Sunflower; 1 kg/ha
  damage to plants, Sf: 0 (0 represents 0 to 25% damage)
Sunflower; 5 kg/ha
  damage to plants, Sf: 0 (0 represents 0 to 25% damage)
Maize; 2.0 kg/ha
  herbicidal damage, Mz: 1
Cotton [9]; 2.0 kg/ha
  herbicidal damage, Ct: 0 (0 is 0 to 20% damage)
Senecio vulgaris; 2.0 kg/ha
  herbicidal damage, Sn: 1
Ipomea purpurea [10]; 2.0 kg/ha
  herbicidal damage, Ip: 0 (0 is 0 to 20% damage)
Winter wheat; 2.0 kg/ha
  herbicidal damage, Ww: 1
Sugar beet [11]; 2.0 kg/ha
  herbicidal damage, Sb: 0 (0 is 0 to 20% damage)
Rape; 2.0 kg/ha
  herbicidal damage, Rp: 0 (0 is 0 to 20% damage)
Soy bean [12]; 2.0 kg/ha
  herbicidal damage, Sy: 0 (0 is 0 to 20% damage)

## COC(=O)C(C)Oc1ccc(Nc2ccc(Cl)cc2[N+](=O)[O-])cc1 (stereo not shown) [Compound 28]
Rice; 1.0 kg/ha
  herbicidal damage, Rc: 1
Japanese millet [1]; 1 kg/ha
  damage to plants, Jm: 3+ (3+ represents 100% kill)
Japanese millet [1]; 5 kg/ha
  damage to plants, Jm: 3+ (3+ represents 100% kill)
Ryegrass [2]; 1 kg/ha
  damage to plants, Rg: 3 (3 represents 75 to 99% kill)
Ryegrass [2]; 5 kg/ha
  damage to plants, Rg: 3+ (3+ represents 100% kill)
Chenopodium album; 1.0 kg/ha
  damage to test plants, Ca: 0 (0 is 0 to 20% damage)
Cotton [3]; 1.0 kg/ha
  damage to test plants, Ct: 0 (0 is 0 to 20% damage)
Ipomea purpurea [4]; 1.0 kg/ha
  damage to test plants, Ip: 0 (0 is 0 to 20% damage)
Sugar beet [5]; 1.0 kg/ha
  damage to test plants, Sb: 1
Soy bean [6]; 1.0 kg/ha
  damage to test plants, Sy: 0 (0 is 0 to 20% damage)
Amaranthus retroflexus; 1.0 kg/ha
  damage to test plants, Am: 0 (0 is 0 to 20% damage)
Japanese millet [7]; 1 kg/ha
  damage to plants, Jm: 3+ (3+ represents 100% kill)
Japanese millet [7]; 5 kg/ha
  damage to plants, Jm: 3+ (3+ represents 100% kill)
Ryegrass [8]; 1 kg/ha
  damage to plants, Rg: 3+ (3+ represents 100% kill)
Ryegrass [8]; 5 kg/ha
  damage to plants, Rg: 3+ (3+ represents 100% kill)
Mustard; 1 kg/ha
  damage to plants, Ms: 0 (0 represents 0 to 25% damage)
Mustard; 5 kg/ha
  damage to plants, Ms: 0 (0 represents 0 to 25% damage)
Ipomea; 1 kg/ha
  damage to plants, Ip: 0 (0 represents 0 to 25% damage)
Ipomea; 5 kg/ha
  damage to plants, Ip: 0 (0 represents 0 to 25% damage)
Sunflower; 1 kg/ha
  damage to plants, Sf: 0 (0 represents 0 to 25% damage)
Sunflower; 5 kg/ha
  damage to plants, Sf: 0 (0 represents 0 to 25% damage)
Maize; 1.0 kg/ha
  herbicidal damage, Mz: 0 (0 is 0 to 20% damage)
Cotton [9]; 1.0 kg/ha
  herbicidal damage, Ct: 0 (0 is 0 to 20% damage)
Senecio vulgaris; 1.0 kg/ha
  herbicidal damage, Sn: 0 (0 is 0 to 20% damage)
Ipomea purpurea [10]; 1.0 kg/ha
  herbicidal damage, Ip: 0 (0 is 0 to 20% damage)
Winter wheat; 1.0 kg/ha
  herbicidal damage, Ww: 2
Sugar beet [11]; 1.0 kg/ha
  herbicidal damage, Sb: 0 (0 is 0 to 20% damage)
Rape; 1.0 kg/ha
  herbicidal damage, Rp: 0 (0 is 0 to 20% damage)
Soy bean [12]; 1.0 kg/ha
  herbicidal damage, Sy: 0 (0 is 0 to 20% damage)
